Here are results for 16 compounds from paper PMC6804419, “Synthesis and Inhibitory Effect of Some Indole‐Pyrimidine Based Hybrid Heterocycles on α‐Glucosidase and α‐Amylase as Potential Hypoglycemic Agents” (ChemistryOpen, 2019).

Data set [1] addresses T1, α-glucosidase type 1 from baker's yeast (Saccharomyces cerevisiae, UniProt P53341).
T1 construct: purchased Sigma-Aldrich G5003
The data set can be described thus: α-Glucosidase inhibition assay. The data set is classed as biochemical. From the text: (§1) α‐glucosidase type 1 from baker‘s yeast (G5003; Sigma‐Aldrich, St. Louis, MO, USA), p‐nitrophenyl α‐D‐glucopyranoside (N1377, Sigma‐Aldrich), sodiumphosphatemonobasic (S3139, Sigma‐Aldrich), sodiumphosphatedibasic (S5136, Sigma‐Aldrich), andacarbose (A8980, Sigma‐Aldrich), DMSO (Dimethylsulfoxide), α‐amylase from Aspergillus oryzae (Sigma Aldrich), starch, DNS (3, 5‐dinitrosalicylic acid), sodiumpotassiumtartratetetrahydrate.
Concentration of α‐glucosidase and substrate. Sodium phosphate buffer (0.1 M) was adjusted by 0.1 N HCl to pH 7.0 with a pH meter (Thermo Fisher Scientific Inc., Waltham, MA, USA). p‐Nitrophenyl α‐D‐glucopyranoside (10 mM) and α‐glucosidase solutions (1 U/ml) were solubilized in 0.1 M sodium phosphate buffer (pH 7.0). All the reagents were manufactured shortly before use and warmed to 37 °C in a water bath. Sodium phosphate buffer (0.1 M, 158 μl per well) was added to a 96‐well plate. α‐Glucosidase (20 μl) and 2 μl of sample were added to 20 μl of p‐nitrophenyl α‐D‐glucopyranoside. In the 200‐μl final reaction volume (0.02 U/well, 0.1 U/ml) the substrate concentration was adjusted to […]. The background signal due to the sample color was measured at 405 nm with the PerkinElmer Wallac Victor3 spectrophotometer (PerkinElmer, Waltham, MA, USA) prior to adding the enzyme. Immediately following α‐glucosidase addition, absorbance was measured at 405 nm 8 times at 1‐min intervals.16
(§2) The inhibitory concentration 50 % (IC50) values were determined from the plots of percent inhibition versus log inhibitor concentration and calculated by logarithmic regression analysis from the mean inhibitory values.

Data set [2] addresses T2, α-amylase from Aspergillus oryzae (Aspergillus oryzae, UniProt P0C1B3).
T2 construct: purchased Sigma Aldrich
The data set can be described thus: α-Amylase assay. The data set is classed as biochemical. On the procedure: as §1
Briefly, 250 μL (0.4 mg/mL) was preincubated with 250 μL of α‐amylase solution for 10 min at 25 °C in one set of tubes. In another set of tubes α‐amylase was preincubated with 250 μL of phosphate buffer (pH 6.9). 250 μL of starch solution at increasing concentrations (0.2–1 % (w/v)) was added to both sets of reaction mixtures to start the reaction. The mixture was then incubated for 10 min at 25 °C and then boiled for 15 min after the addition of 250 μL of DNS to stop the reaction. The amount of reducing sugars released was determined spectrophotometrically using a maltose standard curve and converted to reaction velocities.
as §2

T1 sequence (P53341 whole entry): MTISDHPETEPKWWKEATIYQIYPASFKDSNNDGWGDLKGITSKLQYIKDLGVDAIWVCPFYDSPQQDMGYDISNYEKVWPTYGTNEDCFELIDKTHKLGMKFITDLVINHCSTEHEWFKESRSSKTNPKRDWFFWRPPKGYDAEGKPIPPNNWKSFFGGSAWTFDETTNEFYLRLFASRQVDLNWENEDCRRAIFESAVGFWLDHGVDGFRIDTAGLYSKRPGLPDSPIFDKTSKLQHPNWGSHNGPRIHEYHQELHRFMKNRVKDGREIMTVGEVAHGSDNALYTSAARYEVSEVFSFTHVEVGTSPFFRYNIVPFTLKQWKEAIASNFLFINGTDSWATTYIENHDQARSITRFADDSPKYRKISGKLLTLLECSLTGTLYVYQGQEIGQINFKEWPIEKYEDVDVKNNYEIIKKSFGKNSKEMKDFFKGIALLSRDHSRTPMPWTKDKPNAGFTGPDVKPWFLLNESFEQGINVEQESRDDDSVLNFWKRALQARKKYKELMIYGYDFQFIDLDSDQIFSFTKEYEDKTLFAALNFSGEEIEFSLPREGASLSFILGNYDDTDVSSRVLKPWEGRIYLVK

The compound `CCn1cc(C(=O)CC(c2ccc(C)cc2)C2C(=O)N(C)C(=O)N(C)C2=O)c2ccccc21` (centres unmarked) [5b] showed a melting point of 155 to 156 °C. In data set [1], this compound registered an IC50 of 53.15 ± 0.12 µM. In data set [2], this compound returned an IC50 of 80.17 ± 0.05 µM.
The matching figures for `CCn1cc(C(=O)CC(c2cccc(F)c2)C2C(=O)N(C)C(=O)N(C)C2=O)c2ccccc21` (centres unmarked) [5h, 5‐(3‐(1‐Ethyl‐1H‐indol‐3‐yl)‐1‐(3‐fluorophenyl)‐3‐oxopropyl)‐1,3‐dimethylpyrimidine‐2,4,6(1H,3H,5H)‐trione]: 188 to 189 °C, 61.1 ± 0.42 µM and 89.45 ± 0.44 µM.
For `CCn1cc(C(=O)CC(c2cccs2)C2C(=O)N(C)C(=O)N(C)C2=O)c2ccccc21` (centres unmarked) [5l, 5‐(3‐(1‐Ethyl‐1H‐indol‐3‐yl)‐3‐oxo‐1‐(thiophen‐2‐yl)propyl)‐1,3‐dimethylpyrimidine‐2,4,6(1H,3H,5H)‐trione], the melting point lay within 154 to 155 °C. The compound also came in with an IC50 in data set [1] of 22.3 ± 0.48 µM. This compound yielded an IC50 in data set [2] of 35.4 ± 0.6 µM.
Taken in the same sequence, the figures for `CCn1cc(C(=O)CC(c2ccc(F)cc2)C2C(=O)N(C)C(=O)N(C)C2=O)c2ccccc21` (centres unmarked) [5g, 5‐(3‐(1‐Ethyl‐1H‐indol‐3‐yl)‐1‐(4‐fluorophenyl)‐3‐oxopropyl)‐1,3‐dimethylpyrimidine‐2,4,6(1H,3H,5H)‐trione] were 185 to 186 °C, 69.75 ± 0.01 µM and 86.42 ± 0.22 µM.
Consider `CCn1cc(C(=O)CC(c2cccc(Br)c2)C2C(=O)N(C)C(=O)N(C)C2=O)c2ccccc21` (centres unmarked) [5j, 5‐(1‐(3‐Bromophenyl)‐3‐(1‐ethyl‐1H‐indol‐3‐yl)‐3‐oxopropyl)‐1,3‐dimethylpyrimidine‐2,4,6(1H,3H,5H)‐trione], for which the melting point was in the range of 130 to 131 °C. In data set [1], this compound yielded a half-maximal inhibitory concentration (IC50) of 77.05 ± 0.04 µM. In addition, it took 86.42 ± 0.22 µM to reach half-maximal inhibition in data set [2] (IC50).
Taken in the same sequence, the figures for `CCn1cc(C(=O)CC(c2cccc(C)c2)C2C(=O)N(C)C(=O)N(C)C2=O)c2ccccc21` (centres unmarked) [5i, 5‐(3‐(1‐Ethyl‐1H‐indol‐3‐yl)‐3‐oxo‐1‐(m–tolyl)propyl)‐1,3‐dimethylpyrimidine‐2,4,6(1H,3H,5H)‐trione] were 125 to 126 °C, 73.15 ± 0.12 µM and 95.25 ± 0.1 µM.
`CCn1cc(C(=O)CC(c2ccc([N+](=O)[O-])cc2)C2C(=O)N(C)C(=O)N(C)C2=O)c2ccccc21` (centres unmarked) [5q, 5‐(3‐(1‐Ethyl‐1H‐indol‐3‐yl)‐1‐(4‐nitrophenyl)‐3‐oxopropyl)‐1,3‐ dimethylpyrimidine‐2,4,6(1H,3H,5H)‐trione] yielded a melting point of 198 to 199 °C. Moreover, the IC50 in data set [1] amounted to 31.12 ± 0.11 µM. Moreover, the IC50 in data set [2] amounted to 63 ± 0.61 µM.
Take `CCn1cc(C(=O)CC(c2ccco2)C2C(=O)N(C)C(=O)N(C)C2=O)c2ccccc21` (centres unmarked) [5m, 5‐(3‐(1‐Ethyl‐1H‐indol‐3‐yl)‐1‐(furan‐2‐yl)‐3‐oxopropyl)‐1,3‐dimethylpyrimidine‐2,4,6(1H,3H,5H)‐trione]: the melting point lay within 188 to 189 °C. Also, in data set [1], the IC50 was found to be 64.35 ± 0.08 µM. In data set [2], this compound returned an IC50 of 82.15 ± 0.5 µM.
The matching figures for `CN1C(=O)C(C(CC(=O)c2cn(C)c3ccccc23)c2ccccc2)C(=O)N(C)C1=O` (centres unmarked) [5a, 1,3‐Dimethyl‐5‐(3‐(1‐methyl‐1H‐indol‐3‐yl)‐3‐oxo‐1‐phenylpropyl)pyrimidine‐2,4,6(1H,3H,5H)‐trione]: 185 to 186 °C, 65.14 ± 0.17 µM and 93.25 ± 0.1 µM.
Taken in the same sequence, the figures for `CCn1cc(C(=O)CC(c2cc(OC)c(OC)c(OC)c2)C2C(=O)N(C)C(=O)N(C)C2=O)c2ccccc21` (centres unmarked) [5n, 5‐(3‐(1‐Ethyl‐1H‐indol‐3‐yl)‐3‐oxo‐1‐(3,4,5‐trimethoxyphenyl)propyl)‐1,3‐dimethylpyrimidine‐2,4,6(1H,3H,5H)‐trione] were 170 to 171 °C, 53.15 ± 0.12 µM and 93.25 ± 0.1 µM.
The matching figures for `CCn1cc(C(=O)CC(c2ccc(C(F)(F)F)cc2)C2C(=O)N(C)C(=O)N(C)C2=O)c2ccccc21` (centres unmarked) [5k, 5‐(3‐(1‐Ethyl‐1H‐indol‐3‐yl)‐3‐oxo‐1‐(4‐(trifluoromethyl)phenyl)propyl)‐1,3‐dimethylpyrimidine‐2,4,6(1H,3H,5H)‐trione]: 168 to 169 °C, 20.5 ± 0.44 µM and 47.11 ± 0.09 µM.
In turn, `CCn1cc(C(=O)CC(c2ccc(OC)cc2)C2C(=O)N(C)C(=O)N(C)C2=O)c2ccccc21` (centres unmarked) [5e, 5‐(3‐(1‐Ethyl‐1H‐indol‐3‐yl)‐1‐(4‐methoxyphenyl)‐3‐oxopropyl)‐1,3‐dimethylpyrimidine‐2,4,6(1H,3H,5H)‐trione] registered a melting point of 128 to 129 °C. In data set [1], this compound came in with a half-inhibitory concentration (IC50) of 61.4 ± 0.78 µM. Moreover, in data set [2], the midpoint of inhibition, the IC50, lay at 88.45 ± 0.32 µM.
`CCn1cc(C(=O)CC(c2ccc(Br)cc2)C2C(=O)N(C)C(=O)N(C)C2=O)c2ccccc21` (centres unmarked) [5f, 5‐(1‐(4‐Bromophenyl)‐3‐(1‐ethyl‐1H‐indol‐3‐yl)‐3‐oxopropyl)‐1,3‐dimethylpyrimidine‐2,4,6(1H,3H,5H)‐trione] returned a melting point of 159 to 160 °C. Also, inhibition in data set [1] was half-maximal at 53.15 ± 0.12 µM (IC50). The IC50 in data set [2] was found to be 78.25 ± 0.1 µM.
The matching figures for `CCn1cc(C(=O)CC(c2ccc(Cl)cc2)C2C(=O)N(C)C(=O)N(C)C2=O)c2ccccc21` (centres unmarked) [5c, 5‐(1‐(4‐Chlorophenyl)‐3‐(1‐ethyl‐1H‐indol‐3‐yl)‐3‐oxopropyl)‐1,3‐dimethylpyrimidine‐2,4,6(1H,3H,5H)‐trione]: 166 to 167 °C, 49.75 ± 0.01 µM and 71.24 ± 0.2 µM.
As for `CCn1cc(C(=O)CC(c2ccc3ccccc3c2)C2C(=O)N(C)C(=O)N(C)C2=O)c2ccccc21` (centres unmarked) [5o, 5‐(3‐(1‐Ethyl‐1H‐indol‐3‐yl)‐1‐(naphthalen‐2‐yl)‐3‐oxopropyl)‐1,3‐dimethylpyrimidine‐2,4,6(1H,3H,5H)‐trione], the IC50 in data set [1] was 13.02 ± 0.01 µM; in data set [2] it was 21.7 ± 0.82 µM.
With `CCn1cc(C(=O)CC(c2ccc(Cl)cc2Cl)C2C(=O)N(C)C(=O)N(C)C2=O)c2ccccc21` (centres unmarked) [5d, 5‐(1‐(2,4‐Dichlorophenyl)‐3‐(1‐ethyl‐1H‐indol‐3‐yl)‐3‐oxopropyl)‐1,3‐dimethylpyrimidine‐2,4,6(1H,3H,5H)‐trione], the melting point lay within 149 to 150 °C. Moreover, the IC50 in data set [1] was 58.21 ± 0.09 µM. The compound further gave an IC50 in data set [2] of 96.42 ± 0.22 µM.
